This note sets out measurements from patent publication US20250163119A1, “COMPOUNDS FOR THE TREATMENT OF DIABETES OR OBESITY” (Eli Lilly and Company, priority 2023, published 2025).

Data set [1] can be described thus: Pharmacokinetics in Cynomolgus monkeys, single subcutaneous or intravenous dose. The format is in vivo. How it is done: Plasma concentrations of compounds were determined by LC/MS methods. For each assay, the compound and an internal standard (IS), were extracted from 100% mouse, rat, pig, or monkey plasma (70 μL) using Isopropanol-Methanol. Two distinct layers were formed upon centrifugation with the compound and the IS located in the supernatant layer. An aliquot of the supernatant (150 μL) was transferred to a Waters Sirocco Protein Precipitation Plate. The supernatant was eluted using a positive pressure manifold. The supernatant was mixed with 100-2 Water-Formic acid (400 μL) in a pretreated Sep-Pak tC18 SPE plate and eluted to waste. The peptide and IS were eluted with Acetonitrile-Formic acid (100 μL) in 2 steps (50 μL each step). The elution (40 μL) from SPE plate was mixed with diluent solution (1.875 μL 5× invitrosol and 3.125 μL 1% formic acid in water, 80 μL). A final sample (10 μl) was loaded onto a Xselect CSH C18 IS column (3.5 μm 2.1×20 mm). The column effluent was directed into a Thermo Fisher Scientific Orbitrap (Exploris 240) mass spectrometer for detection and quantitation.
Male and female Cynomolgus monkeys were administered a single subcutaneous dose or intravenous dose (183 to 190 nmol/kg) of compound in 40 mM Tris-HCl 5% D-mannitol (pH 8) at a volume of 0.5 mL/kg. Blood was collected from each animal at 0.5, 3, 6, 24, 48, 72, 96, 168, 240, 336, 408, and 504 hours postdose for pharmacokinetic characterization.

Data set [2] has as its system pre-existing antibodies (ADA) in treatment-naive normal human serum. In words: Pre-existing reactivity (ACE assay format). The format is binding. As to conditions: for Pre-existing Reactivity 90th percentile T2 inhibition >50 donors: ACE assay format. How it is done: This assay assessed the presence of pre-existing antibodies (ADA) against the tested molecules in treatment-naive normal human serum (NHS). Diluted NHS was incubated overnight on a Pierce Streptavidin plate coated with biotinylated tested molecules. On the following day, the captured binding proteins were acid eluted, hard-coated to a Mesoscale (MSD) plate, and detected with a combination of biotin-labeled molecule and ruthenium-labeled streptavidin. If anti-drug antibodies were present, they would bind the labeled drug and the resulting signal was referred to as Tier 1 signal (expressed as electrochemiluminescence). […] The presence of pre-existing anti-drug antibodies was expressed as magnitude of the 90th percentile of Tier 2 inhibition. The 90th percentile of Tier 2 inhibition is a statistical tool to assess the magnitude of specificity of Tier 1 reactivity. This 90th percentile was used to rank molecules in terms of ADA risk.

Setting [3] is: both sexes, cynomolgus monkey, plasma, iv, 187 nmol/kg, single intravenous dose 187 nmol/kg, Mean.
The mark [4] stands for this setting: both sexes, cynomolgus monkey, plasma, iv, 187 nmol/kg, single intravenous dose 187 nmol/kg, individual animal.
Setting [5] is: single intravenous dose 187 nmol/kg, individual animal.
Where [6] appears, read: single subcutaneous dose 187 nmol/kg, individual animal.
Setting [7] is: both sexes, cynomolgus monkey, plasma, iv, 183 nmol/kg, single intravenous dose 183 nmol/kg, Mean.
[8] abbreviates: both sexes, cynomolgus monkey, plasma, iv, 183 nmol/kg, single intravenous dose 183 nmol/kg, individual animal.
The mark [9] stands for this setting: single intravenous dose 183 nmol/kg, individual animal.
[10] abbreviates: single subcutaneous dose 183 nmol/kg, individual animal.

Values joined by “and” are separate entries in the source; they are usually repeats but may differ in a detail not shown here. Identical values can stand only once. Like-named read-outs stand apart in the source and are kept apart here. *1 amine or outer side, *2 acyl side, *3 side chain or, on linkers, in order; H or OH if unused. Side-chain parts run from the residue outwards. [ ]: non-standard residue; d: D form. The star is where a group is joined. C20 diacid = O=C(O)CCCCCCCCCCCCCCCCCCC(=O)*; γGlu = O=C(O)[C@H](CCC(=O)[*:2])N[*:1]; εLys = N[C@@H](CCCCN[*:1])C(=O)[*:2]; pGlu = O=C1CC[C@@H](C(=O)O)N1; αMeL = CC(C)C[C@](C)(N)C(=O)O; AEEA = NCCOCCOCC(=O)O; Aib = CC(C)(N)C(=O)O

The term half-life denotes the time needed for the level to fall by half in the phase considered. High values mean slow decline, low ones rapid decline. One may read the Tmax as the time from dosing to the highest level. In general, Cmax refers to the highest concentration seen after dosing. “Ac-GSPSIVTS[αMeL]DVPT[Aib][αMeL]LQKILEQERAEKARQQAK([γGlu-AEEA-εLys-C20 diacid])EAAEILAQV-NH2 [SEQ ID NO: 1, Ac-GSPSIVTS αMeL DVPT Aib αMeL LQKILEQERAEKARQQAK(γE-(2-[2-(2-Amino-ethoxy)-ethoxy]-acetyl)-ϵK-CO-(CH2)18-CO2H)EAAEILAQV-NH2]”: the figures for the clearance in data set [1] (setting [3]) and in data set [1] (setting [4]) were 14.7 mL/day/kg and 12.2 mL/day/kg, respectively. The half-life is 91.6 h in data set [1] (setting [3]); 91.9 h in data set [1] (setting [4]); 81.9 h in data set [1] (both sexes, cynomolgus monkey, plasma, sc, 187 nmol/kg, single subcutaneous dose 187 nmol/kg, Mean); 72 h in data set [1] (both sexes, cynomolgus monkey, plasma, sc, 187 nmol/kg, single subcutaneous dose 187 nmol/kg, individual animal). The CL/F is 19.5 mL/day/kg in data set [1] (both sexes, cynomolgus monkey, plasma, sc, 187 nmol/kg, single subcutaneous dose 187 nmol/kg, Mean, read-out: CL/F (converted)); 20.8 mL/day/kg in data set [1] (both sexes, cynomolgus monkey, plasma, sc, 187 nmol/kg, single subcutaneous dose 187 nmol/kg, individual animal, read-out: CL/F (converted)); 18.1 mL/day/kg in data set [1] (setting [6]). Further, the Tmax in data set [1] (both sexes, cynomolgus monkey, plasma, sc, 187 nmol/kg, single subcutaneous dose 187 nmol/kg, Mean, read-out: Tmax) amounted to 48 h; in data set [1] (both sexes, cynomolgus monkey, plasma, sc, 187 nmol/kg, single subcutaneous dose 187 nmol/kg, individual animal, read-out: Tmax), 48 h. In addition, the AUC0-inf was 238 µM·h in data set [1] (both sexes, cynomolgus monkey, plasma, sc, single subcutaneous dose 187 nmol/kg, Mean, read-out: AUC0-inf); 315 µM·h in data set [1] (both sexes, cynomolgus monkey, plasma, single intravenous dose 187 nmol/kg, Mean, read-out: AUC0-inf); 369 µM·h and 261 µM·h in data set [1] (setting [5]); 221 µM·h and 255 µM·h in data set [1] (setting [6]). Moreover, the peak concentration (Cmax) is 1.18 µM in data set [1] (both sexes, cynomolgus monkey, plasma, sc, single subcutaneous dose 187 nmol/kg, Mean, read-out: Cmax); 1.1 µM and 1.26 µM in data set [1] (setting [6]). Also, the C0 in data set [1] (both sexes, cynomolgus monkey, plasma, single intravenous dose 187 nmol/kg, Mean, read-out: C0) was 4.6 µM; in data set [1] (setting [5]), 5.04 µM and 4.15 µM. The “CL” value in data set [1] (setting [5]) stood at 17.2 mL/day/kg. For the same substance, the “T1/2” value in data set [1] (setting [5]) was 91.3 h; in data set [1] (setting [6]), 91.7 h. Moreover, the “90th percentile Tier 2 inhibition (pre-existing anti-drug antibodies)” value in data set [2] was “higher 90th percentile Tier 2 inhibition than polypeptides comprising SEQ ID NOs: 22 and 25”. The “Pre-existing Reactivity 90th percentile T2 inhibition >50 donors” value in data set [2] worked out at 37.9%.
Regarding “[pGlu]GSPSGIVTS[αMeL]DVPT[Aib][αMeL]LQKILEQERAEKARQQAK([γGlu-AEEA-εLys-C20 diacid])EAAEILAQV-NH2 [SEQ ID NO: 22, Pyr-GSPSGIVTS αMeL DVPT Aib αMeL LQKILEQERAEKARQQAK(γE-(2-[2-(2-Amino-ethoxy)-ethoxy]-acetyl)-ϵK-CO-(CH2)18-CO2H)EAAEILAQV-NH2]”, the clearance in data set [1] (setting [7]) was 9.89 mL/day/kg; in data set [1] (setting [8]), 9.41 mL/day/kg. In addition, the half-life in data set [1] (setting [7]) is 98.1 h; in data set [1] (setting [8]) it was 83.1 h; in data set [1] (both sexes, cynomolgus monkey, plasma, sc, 183 nmol/kg, single subcutaneous dose 183 nmol/kg, Mean), 136 h. Besides, the CL/F in data set [1] (both sexes, cynomolgus monkey, plasma, sc, 183 nmol/kg, single subcutaneous dose 183 nmol/kg, Mean, read-out: CL/F (converted)) is 12.9 mL/day/kg; in data set [1] (both sexes, cynomolgus monkey, plasma, sc, 183 nmol/kg, single subcutaneous dose 183 nmol/kg, individual animal, read-out: CL/F (converted)), 12.5 mL/day/kg; in data set [1] (setting [10]), 13.2 mL/day/kg. The Tmax in data set [1] (both sexes, cynomolgus monkey, plasma, sc, 183 nmol/kg, single subcutaneous dose 183 nmol/kg, Mean, read-out: Tmax) came to 60 h; in data set [1] (both sexes, cynomolgus monkey, plasma, sc, 183 nmol/kg, single subcutaneous dose 183 nmol/kg, individual animal, read-out: Tmax) it was 72 h; in data set [1] (setting [10]), 48 h. In addition, the AUC0-inf in data set [1] (both sexes, cynomolgus monkey, plasma, sc, single subcutaneous dose 183 nmol/kg, Mean, read-out: AUC0-inf) was 365 µM·h; in data set [1] (both sexes, cynomolgus monkey, plasma, single intravenous dose 183 nmol/kg, Mean, read-out: AUC0-inf) it was 446 µM·h; in data set [1] (setting [9]), 467 µM·h and 424 µM·h; in data set [1] (setting [10]), 387 µM·h and 342 µM·h. Further, the maximum concentration (Cmax) in data set [1] (both sexes, cynomolgus monkey, plasma, sc, single subcutaneous dose 183 nmol/kg, Mean, read-out: Cmax) is 2 µM; in data set [1] (setting [10]), 1.72 µM and 2.28 µM. Besides, the C0 in data set [1] (both sexes, cynomolgus monkey, plasma, single intravenous dose 183 nmol/kg, Mean, read-out: C0) is 4.74 µM; in data set [1] (setting [9]) it was 4.16 µM and 5.32 µM. Moreover, the “CL” value in data set [1] (setting [9]) was 10.3 mL/day/kg. Besides, the “T1/2” value in data set [1] (setting [9]) was 113 h; in data set [1] (setting [10]), 182 h and 90.2 h. In data set [2], the “Pre-existing Reactivity 90th percentile T2 inhibition >50 donors” value is 14.3%.
